Experimental data from ChEMBL document CHEMBL4507277.

Columns and labels:
Details in all cases: Compound concentration 1000.0 nM
[1] = target: Interleukin-1 receptor-associated kinase 4 (Homo sapiens) (UniProt Q9NWZ3)
[2] = target: 5'-AMP-activated protein kinase catalytic subunit alpha-2 (Homo sapiens) (UniProt P54646)
[3] = tested on: Hepatocyte growth factor receptor (Homo sapiens), P08581 [M1250T]
[4] = tested on: Phosphatidylinositol 4,5-bisphosphate 3-kinase catalytic subunit alpha isoform (Homo sapiens), P42336 [M1043I]
Phosphatidylinositol 4,5-bisphosphate 3-kinase catalytic subunit alpha isoform (Homo sapiens), P42336 [M1043I], sequence (P42336 whole entry M1043I, canonical isoform): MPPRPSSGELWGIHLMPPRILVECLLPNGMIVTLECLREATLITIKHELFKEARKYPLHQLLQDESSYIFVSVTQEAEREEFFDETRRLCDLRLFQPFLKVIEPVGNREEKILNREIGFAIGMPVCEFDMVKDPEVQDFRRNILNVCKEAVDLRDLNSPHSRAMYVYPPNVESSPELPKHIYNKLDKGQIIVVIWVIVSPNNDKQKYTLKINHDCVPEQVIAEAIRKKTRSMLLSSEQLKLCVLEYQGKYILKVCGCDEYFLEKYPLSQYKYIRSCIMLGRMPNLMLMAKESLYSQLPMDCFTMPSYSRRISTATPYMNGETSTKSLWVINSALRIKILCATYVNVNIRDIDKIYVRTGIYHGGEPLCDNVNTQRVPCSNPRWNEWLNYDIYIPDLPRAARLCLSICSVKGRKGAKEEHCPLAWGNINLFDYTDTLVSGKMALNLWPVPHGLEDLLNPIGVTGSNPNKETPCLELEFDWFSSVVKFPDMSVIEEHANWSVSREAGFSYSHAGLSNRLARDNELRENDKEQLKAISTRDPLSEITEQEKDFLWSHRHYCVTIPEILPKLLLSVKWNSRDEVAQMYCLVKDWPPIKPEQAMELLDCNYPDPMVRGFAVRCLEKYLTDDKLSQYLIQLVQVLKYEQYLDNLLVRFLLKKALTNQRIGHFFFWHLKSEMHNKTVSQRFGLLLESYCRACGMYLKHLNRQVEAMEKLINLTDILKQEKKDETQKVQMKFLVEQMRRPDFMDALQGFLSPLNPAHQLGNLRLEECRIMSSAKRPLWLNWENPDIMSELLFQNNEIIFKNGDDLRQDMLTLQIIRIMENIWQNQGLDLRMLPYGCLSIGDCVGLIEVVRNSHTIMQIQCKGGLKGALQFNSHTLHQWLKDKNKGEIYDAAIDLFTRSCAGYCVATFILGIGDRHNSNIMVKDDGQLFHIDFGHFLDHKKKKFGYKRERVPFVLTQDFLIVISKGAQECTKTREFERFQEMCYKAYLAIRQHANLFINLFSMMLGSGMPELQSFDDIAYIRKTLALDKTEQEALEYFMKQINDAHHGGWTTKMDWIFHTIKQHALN

[5] = target: Casein kinase I isoform delta (Homo sapiens) (UniProt P48730)
[6] = target: Platelet-derived growth factor receptor alpha (Homo sapiens) (UniProt P16234)
[7] = target: G protein-coupled receptor kinase 4 (Homo sapiens) (UniProt P32298)
[8] = target: Cyclin-dependent kinase 5 (Homo sapiens) (UniProt Q00535)
[9] = target: Phosphatidylinositol 4,5-bisphosphate 3-kinase catalytic subunit delta isoform (Homo sapiens) (UniProt O00329)
[10] = target: Glycogen synthase kinase-3 alpha (Homo sapiens) (UniProt P49840)
Glycogen synthase kinase-3 alpha (Homo sapiens), sequence (P49840 2-483 limits assumed): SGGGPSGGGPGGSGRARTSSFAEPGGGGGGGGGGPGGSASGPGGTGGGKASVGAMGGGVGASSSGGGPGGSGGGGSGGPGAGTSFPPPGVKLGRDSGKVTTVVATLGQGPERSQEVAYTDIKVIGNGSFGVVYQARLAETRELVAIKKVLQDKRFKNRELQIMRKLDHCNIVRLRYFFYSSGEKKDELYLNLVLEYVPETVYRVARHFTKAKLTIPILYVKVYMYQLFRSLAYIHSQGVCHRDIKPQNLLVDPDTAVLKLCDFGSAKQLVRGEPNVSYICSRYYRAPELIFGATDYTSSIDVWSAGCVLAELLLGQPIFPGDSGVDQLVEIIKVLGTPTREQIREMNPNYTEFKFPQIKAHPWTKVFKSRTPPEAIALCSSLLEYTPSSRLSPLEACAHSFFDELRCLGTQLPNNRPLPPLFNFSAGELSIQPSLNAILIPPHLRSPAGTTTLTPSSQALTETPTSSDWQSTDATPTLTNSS

[11] = target: Bone morphogenetic protein receptor type-2 (Homo sapiens) (UniProt Q13873)
Bone morphogenetic protein receptor type-2 (Homo sapiens), sequence (Q13873 whole entry): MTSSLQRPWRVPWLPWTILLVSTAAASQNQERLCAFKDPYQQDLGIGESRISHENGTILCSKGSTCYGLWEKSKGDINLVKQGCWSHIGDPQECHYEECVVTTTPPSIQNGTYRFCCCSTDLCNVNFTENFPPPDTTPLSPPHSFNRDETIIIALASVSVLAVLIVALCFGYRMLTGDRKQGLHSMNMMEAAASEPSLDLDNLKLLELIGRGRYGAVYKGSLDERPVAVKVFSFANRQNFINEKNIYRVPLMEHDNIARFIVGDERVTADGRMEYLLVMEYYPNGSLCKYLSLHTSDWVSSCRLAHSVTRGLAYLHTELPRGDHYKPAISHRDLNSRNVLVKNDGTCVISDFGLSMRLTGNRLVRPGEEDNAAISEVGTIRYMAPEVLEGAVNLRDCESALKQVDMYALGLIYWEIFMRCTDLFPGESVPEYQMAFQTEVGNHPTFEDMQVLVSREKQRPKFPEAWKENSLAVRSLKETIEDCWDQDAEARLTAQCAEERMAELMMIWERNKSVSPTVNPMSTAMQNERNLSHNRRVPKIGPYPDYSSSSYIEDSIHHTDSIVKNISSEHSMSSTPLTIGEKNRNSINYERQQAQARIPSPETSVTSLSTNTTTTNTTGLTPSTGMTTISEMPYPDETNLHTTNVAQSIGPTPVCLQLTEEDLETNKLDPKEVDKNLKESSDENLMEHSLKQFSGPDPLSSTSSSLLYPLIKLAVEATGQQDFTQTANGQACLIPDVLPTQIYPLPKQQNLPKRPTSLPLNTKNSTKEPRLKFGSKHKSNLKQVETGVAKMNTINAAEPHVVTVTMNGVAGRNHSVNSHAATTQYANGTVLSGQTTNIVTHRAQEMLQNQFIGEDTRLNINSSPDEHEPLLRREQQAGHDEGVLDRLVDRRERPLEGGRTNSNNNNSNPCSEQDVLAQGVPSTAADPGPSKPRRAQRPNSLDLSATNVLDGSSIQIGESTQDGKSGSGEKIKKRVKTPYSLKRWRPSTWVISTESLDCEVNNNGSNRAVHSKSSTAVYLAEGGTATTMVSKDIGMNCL

[12] = tested on: Epidermal growth factor receptor (Homo sapiens), P00533 [UNDEFINED MUTATION]
[13] = target: Serine/threonine-protein kinase D1 (Homo sapiens) (UniProt Q15139)
[14] = target: Dual specificity mitogen-activated protein kinase kinase 5 (Homo sapiens) (UniProt Q13163)
[15] = target: cGMP-dependent protein kinase 1 (Homo sapiens) (UniProt Q13976)
cGMP-dependent protein kinase 1 (Homo sapiens), sequence (Q13976 whole entry): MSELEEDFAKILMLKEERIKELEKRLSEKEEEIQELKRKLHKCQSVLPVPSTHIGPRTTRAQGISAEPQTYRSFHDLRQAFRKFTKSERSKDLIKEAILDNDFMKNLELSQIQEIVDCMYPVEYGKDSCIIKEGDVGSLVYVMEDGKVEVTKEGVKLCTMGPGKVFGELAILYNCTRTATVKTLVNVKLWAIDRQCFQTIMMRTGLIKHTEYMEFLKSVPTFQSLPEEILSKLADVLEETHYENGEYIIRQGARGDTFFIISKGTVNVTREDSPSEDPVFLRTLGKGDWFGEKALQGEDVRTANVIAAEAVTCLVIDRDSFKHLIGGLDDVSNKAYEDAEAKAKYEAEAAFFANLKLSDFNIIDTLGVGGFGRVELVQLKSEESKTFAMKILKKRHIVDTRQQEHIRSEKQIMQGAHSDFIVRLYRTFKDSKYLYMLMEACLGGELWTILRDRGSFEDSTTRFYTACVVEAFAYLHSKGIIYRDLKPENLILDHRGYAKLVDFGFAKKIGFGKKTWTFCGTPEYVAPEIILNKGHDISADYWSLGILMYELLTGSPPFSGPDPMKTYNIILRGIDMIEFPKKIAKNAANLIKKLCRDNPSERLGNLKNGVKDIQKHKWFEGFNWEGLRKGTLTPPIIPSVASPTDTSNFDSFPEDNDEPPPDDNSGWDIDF

[16] = target: Tyrosine-protein kinase Lyn (Homo sapiens) (UniProt P07948)
[17] = target: Serine/threonine-protein kinase NIM1 (Homo sapiens) (UniProt Q8IY84)
[18] = target: Mitogen-activated protein kinase kinase kinase kinase 5 (Homo sapiens) (UniProt Q9Y4K4)
[19] = target: Wee1-like protein kinase (Homo sapiens) (UniProt P30291)
[20] = target: Ephrin type-A receptor 2 (Homo sapiens) (UniProt P29317)
[21] = target: Phosphatidylinositol 4,5-bisphosphate 3-kinase catalytic subunit gamma isoform (Homo sapiens) (UniProt P48736)
[22] = target: Serine/threonine-protein kinase Nek3 (Homo sapiens) (UniProt P51956)
[23] = target: Receptor tyrosine-protein kinase erbB-3 (Homo sapiens) (UniProt P21860)
[24] = target: Serine/threonine-protein kinase MARK2 (Homo sapiens) (UniProt Q7KZI7)
Serine/threonine-protein kinase MARK2 (Homo sapiens), sequence (Q7KZI7 whole entry): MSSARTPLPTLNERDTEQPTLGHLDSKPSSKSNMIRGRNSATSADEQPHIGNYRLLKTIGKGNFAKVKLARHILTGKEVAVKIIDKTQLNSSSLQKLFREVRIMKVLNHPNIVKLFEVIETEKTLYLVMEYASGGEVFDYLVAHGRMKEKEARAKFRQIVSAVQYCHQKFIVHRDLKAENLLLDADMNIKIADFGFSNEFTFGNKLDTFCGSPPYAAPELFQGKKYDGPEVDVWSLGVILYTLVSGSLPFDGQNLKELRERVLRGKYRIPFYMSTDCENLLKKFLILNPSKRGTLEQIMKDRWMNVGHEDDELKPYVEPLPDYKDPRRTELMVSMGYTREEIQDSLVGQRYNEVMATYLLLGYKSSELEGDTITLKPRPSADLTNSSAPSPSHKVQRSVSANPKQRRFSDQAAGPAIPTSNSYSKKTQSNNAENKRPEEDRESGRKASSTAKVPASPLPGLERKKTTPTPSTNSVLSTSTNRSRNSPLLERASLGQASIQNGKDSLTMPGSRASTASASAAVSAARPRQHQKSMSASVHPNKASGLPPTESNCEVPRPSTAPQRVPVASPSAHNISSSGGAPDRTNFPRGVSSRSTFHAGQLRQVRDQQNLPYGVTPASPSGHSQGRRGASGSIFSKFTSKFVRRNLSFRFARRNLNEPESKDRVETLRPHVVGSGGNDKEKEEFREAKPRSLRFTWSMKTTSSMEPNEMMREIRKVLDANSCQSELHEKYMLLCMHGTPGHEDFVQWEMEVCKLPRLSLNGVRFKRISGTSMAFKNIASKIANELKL

[25] = target: Atypical kinase COQ8A, mitochondrial (Homo sapiens) (UniProt Q8NI60)
[26] = tested on: Mast/stem cell growth factor receptor Kit (Homo sapiens), P10721 [V559D,T670I]
[27] = target: SRSF protein kinase 1 (Homo sapiens) (UniProt Q96SB4)
[28] = target: Leukocyte tyrosine kinase receptor (Homo sapiens) (UniProt P29376)
[29] = target: Tyrosine-protein kinase Blk (Homo sapiens) (UniProt P51451)
[30] = target: Phosphatidylinositol 3-kinase C2 domain-containing subunit gamma (Homo sapiens) (UniProt O75747)
[31] = target: Homeodomain-interacting protein kinase 2 (Homo sapiens) (UniProt Q9H2X6)
[32] = target: Cyclin-dependent kinase 15 (Homo sapiens) (UniProt Q96Q40)
[33] = target: Ephrin type-A receptor 3 (Homo sapiens) (UniProt P29320)
[34] = target: RAF proto-oncogene serine/threonine-protein kinase (Homo sapiens) (UniProt P04049)
[35] = target: Receptor-interacting serine/threonine-protein kinase 4 (Homo sapiens) (UniProt P57078)
[36] = target: MAP/microtubule affinity-regulating kinase 3 (Homo sapiens) (UniProt P27448)
[37] = target: Focal adhesion kinase 1 (Homo sapiens) (UniProt Q05397)
Focal adhesion kinase 1 (Homo sapiens), sequence (Q05397 2-1052 limits assumed): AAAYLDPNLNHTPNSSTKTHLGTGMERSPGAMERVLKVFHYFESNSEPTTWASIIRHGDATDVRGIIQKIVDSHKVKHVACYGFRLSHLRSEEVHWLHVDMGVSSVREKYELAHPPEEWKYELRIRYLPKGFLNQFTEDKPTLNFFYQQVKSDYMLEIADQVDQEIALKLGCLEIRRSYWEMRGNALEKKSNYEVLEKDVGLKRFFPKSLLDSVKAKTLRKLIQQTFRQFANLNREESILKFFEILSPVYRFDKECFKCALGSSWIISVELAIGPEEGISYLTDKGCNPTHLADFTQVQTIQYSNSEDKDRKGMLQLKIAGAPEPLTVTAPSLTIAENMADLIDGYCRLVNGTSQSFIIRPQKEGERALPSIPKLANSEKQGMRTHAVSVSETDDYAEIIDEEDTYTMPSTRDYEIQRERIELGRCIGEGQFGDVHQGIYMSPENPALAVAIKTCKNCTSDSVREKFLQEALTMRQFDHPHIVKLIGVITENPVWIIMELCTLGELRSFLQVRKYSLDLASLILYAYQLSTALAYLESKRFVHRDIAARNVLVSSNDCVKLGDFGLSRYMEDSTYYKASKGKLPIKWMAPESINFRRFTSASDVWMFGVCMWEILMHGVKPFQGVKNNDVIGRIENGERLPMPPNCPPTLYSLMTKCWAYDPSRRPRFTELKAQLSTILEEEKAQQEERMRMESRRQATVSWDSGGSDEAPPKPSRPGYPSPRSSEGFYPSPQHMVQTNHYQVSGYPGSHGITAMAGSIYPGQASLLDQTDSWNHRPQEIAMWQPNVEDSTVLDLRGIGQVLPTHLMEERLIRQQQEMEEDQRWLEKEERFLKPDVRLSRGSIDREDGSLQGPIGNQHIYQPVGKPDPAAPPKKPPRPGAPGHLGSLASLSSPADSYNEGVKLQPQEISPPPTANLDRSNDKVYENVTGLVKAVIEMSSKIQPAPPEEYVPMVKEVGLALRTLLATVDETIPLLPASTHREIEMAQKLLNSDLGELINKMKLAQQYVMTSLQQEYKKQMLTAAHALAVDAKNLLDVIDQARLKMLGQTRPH

[38] = target: Mitogen-activated protein kinase 15 (Homo sapiens) (UniProt Q8TD08)
[39] = tested on: Epidermal growth factor receptor (Homo sapiens), P00533 [L861Q]
[40] = tested on: Phosphatidylinositol 4,5-bisphosphate 3-kinase catalytic subunit alpha isoform (Homo sapiens), P42336 [E545K]
[41] = target: Dual specificity protein kinase CLK3 (Homo sapiens) (UniProt P49761)
[42] = target: Mitogen-activated protein kinase kinase kinase 14 (Homo sapiens) (UniProt Q99558)
[43] = tested on: Proto-oncogene tyrosine-protein kinase receptor Ret (Homo sapiens), P07949 [M918T]
[44] = target: Serine/threonine-protein kinase PRP4 homolog (Homo sapiens) (UniProt Q13523)
[45] = target: LIM domain kinase 2 (Homo sapiens) (UniProt P53671)

Measured: residual activity

CCS(=O)(=O)c1cc2cc(C[C@](O)(CC(C)(C)c3ccc(F)cc3C(N)=O)C(F)(F)F)[nH]c2cn1
inactive: [1] 100% | [2] 97% | [3] 100% | [4] 88% | [5] 96% | [6] 82% | [7] 100% | [8] 100% | [9] 89% | [10] 100% | [11] 100% | [12] 89% | [13] 100% | [14] 100% | [15] 92% | [16] 100% | [17] 100% | [18] 100% | [19] 100% | [20] 81% | [21] 80% | [22] 100% | [23] 100% | [24] 78% | [25] 92% | [26] 100% | [27] 83% | [28] 97% | [29] 100% | [30] 100% | [31] 100% | [32] 88% | [33] 95% | [34] 83% | [35] 93% | [36] 100% | [37] 97% | [38] 100% | [39] 100% | [40] 80% | [41] 100% | [42] 88% | [43] 100% | [44] 98% | [45] 100%

CCS(=O)(=O)c1cc2cc(C[C@@](O)(CC(C)(C)c3ccc(F)cc3C(N)=O)C(F)(F)F)[nH]c2cn1
inactive: [1] 100% | [2] 100% | [3] 90% | [4] 99% | [5] 100% | [6] 99% | [7] 100% | [8] 100% | [9] 90% | [10] 100% | [11] 91% | [12] 94% | [13] 100% | [14] 81% | [15] 89% | [16] 100% | [17] 51% | [18] 99% | [19] 100% | [20] 67% | [21] 78% | [22] 100% | [23] 100% | [24] 100% | [25] 95% | [26] 100% | [27] 90% | [28] 100% | [29] 100% | [30] 100% | [31] 100% | [32] 59% | [33] 85% | [34] 81% | [35] 100% | [36] 100% | [37] 100% | [38] 100% | [39] 100% | [40] 79% | [41] 100% | [42] 59% | [43] 98% | [44] 80% | [45] 100%
